According to patent US12661409B2, “Target validation and profiling of the RNA targets of small molecules” (priority 2018, dated 2026):

Experiments:
pri-miR-96 [1] = assay: Microscale thermophoresis (MST) affinity for pri-miR-96; assay type: binding
mature miR-96 [2] = assay: RT-qPCR of mature miR-96 levels; assay type: cell-based; details: MDA-MB-231 TNBC cells; 2 complexed with Fe2+ (1 equivalent)
pri-miR-96 [3] = assay: RT-qPCR of pri-miR-96 levels; assay type: cell-based
mature miR-96 [4] = details: triple negative breast cancer (TNBC) cells; cited from earlier work
FOXO1 protein = details: TNBC cells; cited from earlier work
MDA-MB-231 cells = details: TNBC cells; cited from earlier work
DNA = assay: Microscale thermophoresis (MST) affinity for DNA; assay type: binding

| Compound | Kd (pri-miR-96 [1]) [nM] | Effect on mature miR-96 levels (mature miR-96 [2]) | Effect on pri-miR-96 levels (pri-miR-96 [3]; MDA-MB-231 TNBC cells, 2 complexed with Fe2+ (1 equivalent)) | Competition of the pri-miR-96 cleavage caused by 2 (pri-miR-96 [3]; increasing concentrations of 1 (5 to 500 nM), constant 2 (500 nM), MDA-MB-231 cells) | Effect on production of mature miR-96 (earlier study) (mature miR-96 [4]) | Effect on FOXO1 (earlier study) (FOXO1 protein) | Effect on apoptosis (earlier study) (MDA-MB-231 cells) | Kd (DNA) [nM] |
| --- | --- | --- | --- | --- | --- | --- | --- | --- |
| Targaprimir-96 [Compound 1] | 39 ± 18 | reduced | increased | effectively competed off | inhibited the production of mature miR-96 | de-repressed | triggered apoptosis | – |
| Cc1c(N)nc([C@H](CC(N)=O)NC[C@H](N)C(N)=O)nc1C(=O)N[C@H](C(=O)N[C@H](C)[C@@H](O)[C@H](C)C(=O)N[C@H](C(=O)NCCc1nc(-c2nc(C(=O)NCCCNCCCCN)cs2)cs1)[C@@H](C)O)[C@@H](O[C@@H]1O[C@@H](CO)[C@@H](O)[C@H](O)[C@@H]1O[C@@H]1O[C@H](CO)[C@@H](O)[C@H](OC(N)=O)[C@@H]1O)c1cnc[nH]1 [bleomycin A5] | – | – | – | – | – | – | – | ~1000 |
